Source: US20110040086A1, “Novel Beta-Lactam Antibiotics, Methods for Their Production, and Their Use” (DRITTE PATENTPORTFOLIO BETEILIGUNGSGESELLSCHAFT MB, priority 2007, published 2011)

How the values were obtained:
[1] = system: Enterococcus faecalis 769; assay: agar diffusion test (Test System II, multi-resistant germs); type: cell-based; design: key: r = resistant (no detectable zone of inhibition)
In short: (§1)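 Müller-Hinton II plates spread in three directions with McFarland 0.5 bacterial suspension carry three sensi-discs with 10, 50 and 100 μg substance from methanol or water. After 18-20 h at 37 °C, zone-of-inhibition diameters are measured.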

[2] = system: Staphylococcus aureus 315; assay: as above; type: cell-based; design: key: r = resistant (no detectable zone of inhibition)
In short: as §1

[3] = system: Staphylococcus haemolyticus 535; assay: as above; type: cell-based; design: key: r = resistant (no detectable zone of inhibition)
In short: as §1

S. aureus 36881 = assay: as above; type: cell-based, Staphylococcus aureus; design: key: r = resistant (no detectable zone of inhibition)
In short: as §1

S. aureus 520 = assay: as above; type: cell-based, Staphylococcus aureus; design: key: r = resistant (no detectable zone of inhibition)
In short: as §1

[4] = system: S. aureus North Germany strain; assay: as above; type: cell-based, Staphylococcus aureus; design: key: r = resistant (no detectable zone of inhibition)
In short: as §1

S. aureus 38418 = assay: as above; type: cell-based, Staphylococcus aureus
In short: as §1

S. aureus ATCC 6538 = assay: as above; type: cell-based, Staphylococcus aureus
In short: as §1

S. epidermidis 847 = assay: as above; type: cell-based, Staphylococcus epidermidis; design: key: r = resistant (no detectable zone of inhibition)
In short: as §1

S. epidermidis 125 = assay: as above; type: cell-based, Staphylococcus epidermidis
In short: as §1

[5] = system: Staphylococcus aureus ATCC 6538; assay: mouse infected with Staphylococcus aureus infection model (survival); type: in vivo, BALB/c mice
In short: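 BALB/c mice, at least 3 per group, made neutropenic with cyclophosphamide i.p. (250 mg/kg day 0, 100 mg/kg day 2). Infected i.p. on day 3 with 10 μl/g of S. aureus suspension at OD550 0.6 (ca. 10^10-10^12 CFU). Antibiotic given i.p. in PBS with 3% DMSO 30 min post-infection, then repeated; survival recorded.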

S. aureus 33490 = assay: agar diffusion test (Test System II, multi-resistant germs); type: cell-based, Staphylococcus aureus; design: key: r = resistant (no detectable zone of inhibition); settings: quantity 0.09 μmol
In short: as §1

[6] = system: Staphylococcus aureus col.; assay: as above; type: cell-based; settings: quantity 0.09 μmol
Method: The test substances are deposited in stepped quantities (10 μg, 50 μg, 100 μg) onto active ingredient carriers (sensi-discs). For this purpose, the test substances are dissolved in methanol or A. dest. according to their solubility. Each inoculated plate is fitted with 3 test sheets.
Test System II (Effect Against Multi-Resistant Germs)
For this purpose, bacteria is cultivated on Müller-Hinton-Agar II plates.
With 1-1.5 ml physiological saline solution, a bacteria suspension of McFarland 0.5 (corresponds to a bacteria density of 150×10^6 germs) is produced. Then, with a sterile glass rod, a small drop of bacteria suspension is placed on the Müller-Hinton-Agar plate and coated in three layers (vertical, horizontal, and transverse). Thereafter, the sensi-discs with the novel semi-synthetic test substances are placed on top. The fitted plates are incubated for 18-20 hours at 37° C. After incubation, the diameters of the zones of inhibition are read as a measure for the antimicrobial activity of the novel semi-synthetic test substances.

[7] = Quantity n 0.02 mol (first line per ingredient)
[8] = Quantity n 0.1 mol (second line per ingredient)
[9] = Quantity n 0.2 mol (third line per ingredient)
[10] = Quantity n 0.02 (first line per ingredient)
[11] = Quantity n 0.1 (second line per ingredient)
[12] = Quantity n 0.2 (third line per ingredient)

Molecule	Diameter of zone of inhibition, Enterococcus faecalis 769 ([1]; Quantity n 0.02)	Diameter of zone of inhibition, Enterococcus faecalis 769 ([1]; Quantity n 0.1)	Diameter of zone of inhibition, Enterococcus faecalis 769 ([1]; Quantity n 0.2)	Diameter of zone of inhibition, Staphylococcus aureus 315 ([2]; Quantity n 0.02 mol)	Diameter of zone of inhibition, Staphylococcus aureus 315 ([2]; Quantity n 0.1 mol) [mm]	Diameter of zone of inhibition, Staphylococcus aureus 315 ([2]; Quantity n 0.2 mol) [mm]	Diameter of zone of inhibition [3, 7]	Diameter of zone of inhibition [3, 8]	Diameter of zone of inhibition [3, 9] [mm]	Diameter of zone of inhibition, S. aureas 36881 (S. aureus 36881; Quantity n 0.02 mol)	Diameter of zone of inhibition, S. aureas 36881 (S. aureus 36881; Quantity n 0.1 mol)	Diameter of zone of inhibition, S. aureas 36881 (S. aureus 36881; Quantity n 0.2 mol) [mm]	Diameter of zone of inhibition, S. aureus 520 (S. aureus 520; Quantity n 0.02 mol)	Diameter of zone of inhibition, S. aureus 520 (S. aureus 520; Quantity n 0.1 mol)	Diameter of zone of inhibition, S. aureus 520 (S. aureus 520; Quantity n 0.2 mol) [mm]	Diameter of zone of inhibition, S. aureus North German strain [4, 7]	Diameter of zone of inhibition, S. aureus North German strain [4, 8] [mm]	Diameter of zone of inhibition, S. aureus North German strain [4, 9] [mm]	Diameter of zone of inhibition, S. aureas 38418 (S. aureus 38418; Quantity n 0.02)	Diameter of zone of inhibition, S. aureas 38418 (S. aureus 38418; Quantity n 0.1) [mm]	other results
3-chlorine-7-[2-(5-methyl-3,4-dioxocyclohexa-1,5-dienylamino)-2-phenyl-acetylamino]-8-oxo-5-azabicyclo[4.2.0]oct-3-ene-4-carboxylic acid [1s]	r	r	r	r	8	12	r	r	10	r	r	10	r	r	10	r	8	14	14 mm	24	Diameter of zone of inhibition, S. aureas 38418 (S. aureus 38418; Quantity n 0.2): 28 mm; Diameter of zone of inhibition, S. aureus ATCC 6538 (S. aureus ATCC 6538; [7]): 20 mm; Diameter of zone of inhibition, S. aureus ATCC 6538 (S. aureus ATCC 6538; [8]): 30 mm; Diameter of zone of inhibition, S. aureus ATCC 6538 (S. aureus ATCC 6538; [9]): >30 mm; Diameter of zone of inhibition, S. epidermidis 847 (S. epidermidis 847; [10]): r; Diameter of zone of inhibition, S. epidermidis 847 (S. epidermidis 847; [11]): 14 mm; Diameter of zone of inhibition, S. epidermidis 847 (S. epidermidis 847; [12]): 18 mm; Diameter of zone of inhibition, S. epidermidis 125 (S. epidermidis 125; [7]): 14 mm; Diameter of zone of inhibition, S. epidermidis 125 (S. epidermidis 125; [8]): 22 mm; Diameter of zone of inhibition, S. epidermidis 125 (S. epidermidis 125; [9]): 26 mm
CC1=CC(NC(C(=O)NC2C(=O)N3C(C(=O)O)=C(C)CSC23)c2ccc(O)cc2)=CC(=O)C1=O (stereo not shown) [1q]	r^1	r	10 mm	r	10	14	r	r	10	r	r	10	r	r	10	r	10	12	10^2 mm	18	Diameter of zone of inhibition, S. aureas 38418 (S. aureus 38418; Quantity n 0.2): 22 mm; Diameter of zone of inhibition, S. aureus ATCC 6538 (S. aureus ATCC 6538; [7]): 16 mm; Diameter of zone of inhibition, S. aureus ATCC 6538 (S. aureus ATCC 6538; [8]): 20 mm; Diameter of zone of inhibition, S. aureus ATCC 6538 (S. aureus ATCC 6538; [9]): 26 mm; Diameter of zone of inhibition, S. epidermidis 847 (S. epidermidis 847; [10]): r; Diameter of zone of inhibition, S. epidermidis 847 (S. epidermidis 847; [11]): 14 mm; Diameter of zone of inhibition, S. epidermidis 847 (S. epidermidis 847; [12]): 16 mm; Diameter of zone of inhibition, S. epidermidis 125 (S. epidermidis 125; [7]): 12 mm; Diameter of zone of inhibition, S. epidermidis 125 (S. epidermidis 125; [8]): 20 mm; Diameter of zone of inhibition, S. epidermidis 125 (S. epidermidis 125; [9]): 26 mm; Survival/tested mice n/n ([5]; 2 × 0.5 mg (25 mg/kg) i.p.): 3/6; Survival/tested mice n/n ([5]; 2 × 1.0 mg (50 mg/kg) i.p.): 1/3
CC1(C)SC2C(NC(=O)C(NC3=C(C(=O)NCCO)C(=O)C=CC3=O)c3ccc(O)cc3)C(=O)N2C1C(=O)O (stereo not shown) [6-{2-[2-(2-hydroxyethylcarbamoyl)-3,6-dioxocyclohexa-1,4-dienylamino]-2-(4-hydroxyphenyl)-acetylamino-penicillanic acid]	–	–	–	–	–	–	–	–	–	–	–	–	–	–	–	–	–	–	–	–	Diameter of zone of inhibition ([1]; quantity 0.09 μmol): 28 mm; Diameter of zone of inhibition ([2]; quantity 0.09 μmol): r; Diameter of zone of inhibition ([3]; quantity 0.09 μmol): r; Diameter of zone of inhibition (S. aureus 33490): 18 mm; Diameter of zone of inhibition (S. aureus 36881; quantity 0.09 μmol): r^2; Diameter of zone of inhibition (S. aureus 520; quantity 0.09 μmol): r; Diameter of zone of inhibition (S. aureus 38418; quantity 0.09 μmol): 34 mm; Diameter of zone of inhibition (S. aureus ATCC 6538; quantity 0.09 μmol): 44 mm; Diameter of zone of inhibition (S. epidermidis 847; quantity 0.09 μmol): 24 mm; Diameter of zone of inhibition (S. epidermidis 125; quantity 0.09 μmol): 28 mm; Diameter of zone of inhibition [6]: 32 mm
